Results published in ChEMBL document CHEMBL1141696 (Bioorg Med Chem Lett, 2008).

What was measured:
[1] = Binding affinity to delta opioid receptor in guinea pig forebrain; parameters: species or system Cavia porcellus
Mus musculus = experiment: Antinociceptive activity in sc dosed mouse assessed as attenuation of acetic acid-induced writhing per 10 mins; type: functional

SMILES	Ki [1]	Activity (Mus musculus)	ED50 (Mus musculus)
O=C1CC[C@@]2(O)[C@H]3Cc4ccc(O)c5c4[C@@]2(CCN3CC2CC2)[C@H]1O5 [NALTREXONE]	0.0207 µM	–	–
CC(C)CN1CC[C@]23c4c5ccc(O)c4O[C@H]2C(=O)CC[C@@]3(O)[C@H]1C5	0.229 µM	Dose-dependent effect	5.05 mg/kg
